Test results as given in a melting point compilation (Tetko et al.; mined from patent text by program, amines drawn as free bases though some values may be those of a salt).
Residues, ends and D or L forms follow the SMILES beside them. *: point of attachment. Cbz = O=C(OCc1ccccc1)*; Boc = CC(C)(C)OC(=O)*

Row | melting point [°C] | Compound
1 | 114 to 117 | Cc1nc(OCC(F)(F)F)c([N+](=O)[O-])c(N2CCC(c3ccccc3)CC2)n1
2 | 89 | CCCCNS(=O)(=O)c1cc(C(=O)CCl)ccc1Cl
3 | 144 to 146 | CCOC(=O)C=C(NC(=O)Nc1cc(OC(C)C)c(Cl)cc1F)C(F)(F)F
4 | 185 to 188 | O=C(CCCCCCC(=O)Oc1cc(O)cc(O)c1)Oc1cc(O)cc(O)c1
5 | 87 to 92 | CCN(CCCCc1coc2ccccc12)C[C@H]1COc2ccc3nc(C)ccc3c2O1
6 | 180 to 181 | CN1CCN(C(=O)c2ccc(-c3cnc4c(c3)N(Cc3ccccc3)CCN4)cc2)CC1
7 | 152 to 153 | COc1cccc2c(CN3CC=C(/C=C/c4ccccc4)CC3)coc12
8 | 122 | CN(C)C=NS(=O)(=O)c1cccc(Br)c1
9 | 180 to 182 | COc1cc2c(cc1OC)C(c1ccccc1)=NC(c1cccnc1)C2 (stereo not given)
10 | 157 to 158 | CCN(CC)C(=O)c1ccn2nc(-c3ccccc3)c(-c3ccc(=O)n(C(C)C)n3)c2c1
11 | 125 to 128 | CC(C)CC(NC(=O)OCc1ccccc1)C(=O)NC(CCCCNC(=O)OC(C)(C)C)C(=O)O (stereo not drawn) (Cbz-Leu-Lys(Boc)-OH; configuration not given here)
12 | 145 to 146 | Cc1nc2c(N)nc3ccccc3c2n1CCCOCCCc1ccccc1
13 | 72 to 73 | COc1ccc(C(=O)c2cc(OC)c(OC)c(OC)c2)cc1
14 | 79 | CC(C)(Cc1ccccc1)C(=O)Cn1cncn1
15 | 158 to 160 | CC(=O)OCC(=O)C1CCC2C3CCC4CC(O)C(N5CCOC(C)(C)C5)CC4(C)C3C(=O)CC12C (stereo not given)
16 | 143 to 145 | COc1cc(-c2cc(C(F)(F)F)nn2-c2ccc(S(N)(=O)=O)cc2)ccc1-c1cocn1
17 | 173 to 174 | CCCOc1ccccc1-c1nc2nc(NCCCSC)ncc2c(=O)[nH]1
18 | 190 to 192 | CCCc1nc2c(N)nc3ccc(N)cc3c2s1
19 | 54 to 56 | CC(=O)c1ccc2c(c1)CCS2(=O)=O
20 | 187 | OCC1OC(n2cnc3c(NCCc4c[nH]c5ccccc45)ncnc32)C(O)C1O (stereo not given)
21 | 181 to 190 | O=C1c2ccc(O)cc2OCC1Cc1cccnc1 (stereo not given)
22 | 213 to 215 | CC(C)n1c(=O)nc(-c2ccc3ccccc3c2)c2cc3c(cc21)OCO3

Row | melting point [°C] | Compound
23 | 138 to 139 | CC(c1ccccc1)N1CCN(c2nn(C)c3c2Cc2ccccc2-3)CC1 (stereo not given)
24 | 135 to 138 | Cc1nn(CC(F)(F)F)c(C(=O)O)c1[N+](=O)[O-]
25 | 126 | CC(C)(C1OCCO1)C(O)(COc1cccc2ccccc12)Cn1ccnc1 (stereo not given)
26 | 229 to 233 | Cn1cnc(COc2nn3c(-c4ccccc4)nnc3cc2-c2ccccc2)n1
27 | 174 to 176 | COc1ccc(-c2cc(C(=O)Nc3cccc(F)n3)c3ccccc3n2)cc1
28 | 129 to 131 | COc1ccc(-c2nc(C(OC)(C(F)(F)F)C(F)(F)F)[nH]c2-c2ccc(OC)cc2)cc1
29 | 190 to 192 | Cc1cc(C)c2nc3sccn3c(=O)c2c1
30 | 144 to 145 | CC(=O)NCCOc1cc(-c2ccccc2)on1
31 | > 250 | O=Cc1c[nH]c2c1ccc1c3cc(F)ccc3[nH]c12
32 | 111 | CCC(CC)N(O)C(=O)Nc1cccc(Oc2ccccc2)c1
33 | 139 to 140 | COc1cccc(Oc2ccc([C@@H]3CCCN4CCS(=O)(=O)N=C34)cc2)c1
34 | 130 to 131 | CCC(CC)c1ccc(OC)c2nc(Oc3c(C)cc(Cl)cc3Cl)n(C)c12
35 | 157 to 158 | Cn1nc(-c2ccc(Cl)cc2)nc1-c1cccnc1
36 | 162 to 164 | O=c1ncc(Br)cn1CCC(O)Cl (stereo not given)
37 | 196 to 199 | COc1cc2c(Nc3cccc(Cl)c3F)ncnc2cc1OC1CCN(C(=O)CC(C)(C)O)CC1
38 | 121 to 123 | c1cc(-c2csnn2)ccn1
39 | 138 to 140 | O=C(Oc1ccc(-c2ccccc2)cc1)Oc1ccc([N+](=O)[O-])cc1
40 | 122 to 123 | COC(=O)Cc1ccc(CN2CCN(C(c3ccccc3)c3ccccn3)CC2)cc1 (stereo not given)
41 | 206 to 209 | O=C(O)COc1cc(F)c(F)cc1C(=S)NCc1ccc(Br)cc1F
42 | 88 to 89 | O=S(CBr)c1ccc2c(c1)OCO2 (stereo not given)
43 | 57 to 62 | Cc1noc(NS(=O)(=O)c2ccccc2-c2ccc(C(F)(F)F)cc2)c1C
44 | 102 | COc1ccccc1[C@H](C)C(=O)O

Row | melting point [°C] | Compound
45 | 191 | COc1cc(CNc2ccc3c(c2)N2CCCN=C2S3)cc(OC)c1OC
46 | 155 | CCCO[C@@H](C)C(=O)Oc1ccc(-c2ccc(C(=O)O)cc2)cc1
47 | 289 to 290 | CCOc1ccccc1-c1ncc(-c2nnn[nH]2)c(=O)[nH]1
48 | 69 to 71 | COc1ccc(CS[C@@H]2C[C@@H](CSCc3ccccc3)N(S(C)(=O)=O)C2)cc1
49 | > 200 | Cn1c(=O)[nH]c(N2CCc3ccccc3CC2)c(C#N)c1=O
50 | 150 to 152 | O=C(CCl)NN1CCOC(c2ccccc2)(c2ccccc2)CC1
51 | 57 | COC(=O)CCNc1cccc(CNC(=O)C2Cc3ccccc3N2S(=O)(=O)c2ccc(-c3cccc(C(F)(F)F)c3)cc2)c1 (stereo not given)
52 | 235 | O=C(Nc1ccc2ccc(Cl)nc2n1)C1=CSCS1
53 | 316 to 318 | CN1CCC(n2cc(C3=C(c4cn(C)c5ccccc45)C(=O)NC3=O)c3ccccc32)CC1
54 | 195 to 196 | CCc1c(C)c(NC(=O)CC(C)(C)C)c(C)c2c1S(=O)CC2c1ccc(C(C)C)cc1 (stereo not given)
55 | 66 to 68 | O=C(O)c1ccc2cc(OCCCCCCc3cccc(OCc4ccccc4)c3OCc3ccccc3)ccc2c1
56 | 140 to 141 | COc1ccc(-c2c(SCc3ccncc3)oc3cc(OC)ccc3c2=O)cc1
57 | 53 to 54 | CNC(=O)[C@@H]1C[C@H](SCc2ccc(OC)cc2)CN1
58 | 72 to 73 | CCOC(=O)c1ccc(/C=C(\C)c2cc(OC)c3c(c2)C(C)(C)CC3(C)C)cc1
59 | 79 to 81 | Cn1nc(-c2ncc(Cl)cc2F)c(C(F)F)c1OC(F)F
60 | 119 to 121 | COCCOc1ccc(/C=C/CO)c(Oc2ncc(C(F)(F)F)cc2Cl)c1
61 | 126 to 128 | CC(C)(C)CC(C)(C)c1ccc(OCC(=O)Nc2ccc(Cl)c(Nc3cc(=O)n(-c4c(Cl)cc(Cl)cc4Cl)[nH]3)c2)cc1
62 | 172 to 174 | CCCCNC(=O)[C@H](C)C[C@H](O)[C@H](CC1CCCCC1)NC(=O)[C@H](Cc1cscn1)NC(=O)OC(C)(C)C
63 | 146 to 147 | CC1(C(=O)Nc2ccc(N3CCOC3=O)c(C(F)(F)F)c2)CC1
64 | 273 to 275 | Oc1ccc2c(-c3nc4ccc(O)cc4o3)cccc2c1
65 | 75 to 77 | COC(=O)c1ccc(S(=O)Cc2cccc(Cl)c2)cn1 (stereo not given)
66 | 165 to 167 | Nc1nc(C(F)(F)F)c(CN2C(=O)C3(COc4cc5c(cc43)OCO5)c3ccccc32)s1 (stereo not given)

Row | Compound | melting point [°C]
67 | CCCN1CC(CO)CC2c3cccc4[nH]cc(c34)CC21 (stereo not given) | 166 to 168
68 | COC(=O)C1C(=O)NC(=O)C12C(=O)N1c3ccccc3Sc3cccc2c31 (stereo not given) | 221 to 224
69 | C#Cc1ccc(C23OCC(C4CCCCC4)(CO2)CO3)cc1 | 190 to 192
70 | c1cc(-c2ccc(N3CCNCC3)cc2)[nH]n1 | 290
